# Laboratory results as given in the supplement of paper PMC10307832.
# Assays:
# Assay in all cases: relative viability (nuclei count vs DMSO), 5 days (fraction); higher = more cells survive
# Metformin + Luminespib = compound: CN(C)C(=N)NC(=N)N [Metformin] + CCNC(=O)c1noc(-c2cc(C(C)C)c(O)cc2O)c1-c1ccc(CN2CCOCC2)cc1 [Luminespib] (partner 0.01 µM)
# Outline: (§1)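 Values are medians from duplicate plates. Each reflects relative viability, defined as the nuclei count of treated wells over that of vehicle wells. Lung cancer cell lines in 1536-well plates were pin-tool dosed one day after seeding with one drug alone or with a fixed anchor-drug dose plus five library-drug doses (not always all listed) in √10 steps, then fixed, stained and imaged at 4× after 5 days.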
# Apatinib + Palbociclib = compound: N#CC1(c2ccc(NC(=O)c3cccnc3NCc3ccncc3)cc2)CCCC1 [Apatinib] + CC(=O)c1c(C)c2cnc(Nc3ccc(N4CCNCC4)cn3)nc2n(C2CCCC2)c1=O [Palbociclib] (partner 0.5 µM)
# Outline: as §1
# Apatinib + Linsitinib = compound: N#CC1(c2ccc(NC(=O)c3cccnc3NCc3ccncc3)cc2)CCCC1 [Apatinib] + C[C@]1(O)C[C@@H](c2nc(-c3ccc4ccc(-c5ccccc5)nc4c3)c3c(N)nccn32)C1 [Linsitinib] (partner 1 µM)
# Outline: as §1
# Apatinib + Phenformin = compound: N#CC1(c2ccc(NC(=O)c3cccnc3NCc3ccncc3)cc2)CCCC1 [Apatinib] + N=C(N)NC(=N)NCCc1ccccc1 [Phenformin] (partner 250 µM)
# Outline: as §1
cell line,measurement,setting,value
NCI-H460,relative viability,Metformin + Luminespib; first compound 10 µM,0.048
same,relative viability,Metformin + Luminespib; first compound 31.62 µM,0.0359
same,relative viability,Metformin + Luminespib; first compound 100 µM,0.0322
same,relative viability,Metformin + Luminespib; first compound 316.23 µM,0.0306
same,relative viability,Metformin + Luminespib; first compound 1000 µM,0.0333
same,relative viability,Apatinib + Palbociclib; first compound 0.08 µM,0.188
same,relative viability,Apatinib + Palbociclib; first compound 0.253 µM,0.191
same,relative viability,Apatinib + Palbociclib; first compound 0.8 µM,0.103
same,relative viability,Apatinib + Palbociclib; first compound 2.53 µM,0.182
same,relative viability,Apatinib + Palbociclib; first compound 8 µM,0.137
same,relative viability,Apatinib + Linsitinib; first compound 0.08 µM,0.841
same,relative viability,Apatinib + Linsitinib; first compound 0.253 µM,0.863
same,relative viability,Apatinib + Linsitinib; first compound 0.8 µM,0.661
same,relative viability,Apatinib + Linsitinib; first compound 2.53 µM,0.737
same,relative viability,Apatinib + Linsitinib; first compound 8 µM,0.64
same,relative viability,Apatinib + Phenformin; first compound 0.08 µM,0.494
same,relative viability,Apatinib + Phenformin; first compound 0.253 µM,0.479
same,relative viability,Apatinib + Phenformin; first compound 0.8 µM,0.489
same,relative viability,Apatinib + Phenformin; first compound 2.53 µM,0.39
same,relative viability,Apatinib + Phenformin; first compound 8 µM,0.385
